Experiments:
[1] = molecular target: T1, human mGlu2 receptor (Homo sapiens, UniProt Q14416); assay: [35S]GTPγS binding assay, mGluR2 negative allosteric modulation; assay type: biochemical; conditions: for Emax: maximal % inhibition relative to the control glutamate response (EC80 glutamate), read-out: GTPγS-hmGluR2 anGT Emax; for IC50: membranes from CHO cells transfected with human mGlu2 receptor, glutamate ~EC80 (60 μM), read-out: GTPγS-hmGluR2 anGT pIC50 (converted)
T1 construct: expressed in transfected cells; host or cells: CHO cells (membrane preparation)
Protocol: Total reaction volume was 200 μl. […] Membrane-bound radioactivity was counted in a Topcount.

[2] = test system: rats; assay: Reversal of the effect of the mGluR2 PAM JNJ-42153605-induced inhibition of scopolamine-induced hyperlocomotion; assay type: in vivo, rat; conditions: for ED50: Rattus norvegicus, rats, PO, 60 min pretreatment, JNJ-42153605 20 mg/kg i.v. + scopolamine 0.16 mg/kg i.v., criterion total distance >1500 cm in 30 min, read-out: SCOP JNJ-42153605 ED50
Protocol: Motor activity was measured in microprocessor-based motor activity arenas (closed gray PVC cylinders with a height of 39 cm and a diameter of 31 cm). Each arena was placed on an infrared LED (8×8 LEDs) lit box (white PVC squared box; 40×40 cm^2; height 12.5 cm. An infrared-sensitive tube camera and a white light source were mounted to the ceiling above the observation chamber to track the animal. […] Noldus, Wageningen, The Netherlands). The intensity of the light within the activity cages (measured in the centre at the level of the floor) ranged between 4 and 8 LUX. The rats were pretreated with test compound or vehicle at 60 min before the start of the activity recordings and placed into individual cages. […] WO2010/130424; Cid et al. J. Med.

[3] = historical series of solvent-pretreated control rats, first 30 min

T1 sequence (Q14416 19-872): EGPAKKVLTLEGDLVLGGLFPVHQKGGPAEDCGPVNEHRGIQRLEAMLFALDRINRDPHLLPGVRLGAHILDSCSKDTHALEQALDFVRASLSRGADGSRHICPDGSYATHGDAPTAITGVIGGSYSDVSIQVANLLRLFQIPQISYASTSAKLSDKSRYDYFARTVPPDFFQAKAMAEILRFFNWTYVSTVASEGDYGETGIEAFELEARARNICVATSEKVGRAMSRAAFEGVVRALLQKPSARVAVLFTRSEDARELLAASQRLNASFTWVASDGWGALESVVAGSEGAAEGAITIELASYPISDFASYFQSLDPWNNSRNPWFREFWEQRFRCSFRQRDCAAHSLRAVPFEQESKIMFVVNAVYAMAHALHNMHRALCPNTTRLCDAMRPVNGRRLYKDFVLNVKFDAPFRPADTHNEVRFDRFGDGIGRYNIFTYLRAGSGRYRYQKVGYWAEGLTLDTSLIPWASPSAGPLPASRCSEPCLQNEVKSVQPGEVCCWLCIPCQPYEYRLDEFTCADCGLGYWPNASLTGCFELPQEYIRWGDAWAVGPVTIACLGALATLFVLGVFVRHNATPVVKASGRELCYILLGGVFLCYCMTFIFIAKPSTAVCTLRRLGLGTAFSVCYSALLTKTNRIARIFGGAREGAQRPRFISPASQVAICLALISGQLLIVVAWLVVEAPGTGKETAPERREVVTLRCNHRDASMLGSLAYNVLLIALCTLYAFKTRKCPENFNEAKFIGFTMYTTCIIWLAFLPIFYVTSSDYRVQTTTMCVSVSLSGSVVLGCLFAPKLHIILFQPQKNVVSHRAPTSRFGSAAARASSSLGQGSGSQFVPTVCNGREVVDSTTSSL

Compound | Emax [1] [%] | IC50 [1] [nM] | melting point [°C] | ED50 [2] [mg/kg] | Median total distance travelled [2, 3] [cm] | rats travelling >1500 cm [2, 3] [%] | rats travelling >4400 cm [2, 3] [%]
Cc1cc(-c2cnn3c2C(=O)N(c2ccc(C(F)(F)F)c(Cl)c2)C[C@@H]3C)no1 [Co. No. 8, (7S)-5-[3-chloro-4-(trifluoromethyl)phenyl]-7-methyl-3-(5-methylisoxazol-3-yl)-6,7-dihydropyrazolo[1,5-a]pyrazin-4-one] | 110 | 16.2 | – | – | – | – | –
CNc1ccc(-c2cc(-c3cnn4c3C(=O)N(c3ccc(C(F)(F)F)cc3)C[C@@H]4C)no2)cn1 [Co. No. 26, (7S)-7-methyl-3-[5-[6-(methylamino)-3-pyridyl]isoxazol-3-yl]-5-[4-(trifluoromethyl)phenyl]-6,7-dihydropyrazolo[1,5-a]pyrazin-4-one] | 112 | 6.17 | 173.7 | – | – | – | –
C[C@H]1CN(c2ccc(C(F)(F)F)c(Cl)c2)C(=O)c2c(-c3cc(-c4cnccn4)on3)cnn21 [Co. No. 13, (7S)-5-[3-chloro-4-(trifluoromethyl)phenyl]-7-methyl-3-(5-pyrazin-2-ylisoxazol-3-yl)-6,7-dihydropyrazolo[1,5-a]pyrazin-4-one] | 106 | 6.03 | 205.91 | – | – | – | –
C[C@H]1CN(c2ccc(C(F)(F)F)c(Cl)c2)C(=O)c2c(-c3cc(-c4cccnc4)on3)cnn21 [Co. No. 11, (7S)-5-[3-chloro-4-(trifluoromethyl)phenyl]-7-methyl-3-[5-(3-pyridyl)isoxazol-3-yl]-6,7-dihydropyrazolo[1,5-a]pyrazin-4-one] | 110 | 2.45 | 156.64 | > 0.63 | – | – | –
Cc1cc(N2C[C@H](C)n3ncc(-c4cc(-c5cncc(F)c5)on4)c3C2=O)ccc1C(F)(F)F [Co. No. 23, (7S)-3-[5-(5-fluoro-3-pyridyl)isoxazol-3-yl]-7-methyl-5-[3-methyl-4-(trifluoromethyl)phenyl]-6,7-dihydropyrazolo[1,5-a]pyrazin-4-one] | 105 | 20.9 | 168.93 | – | – | – | –
Cc1cc(-c2cc(-c3cnn4c3C(=O)N(c3ccc(C(F)(F)F)cc3)C[C@@H]4C)no2)ccn1 [Co. No. 6, (7S)-7-methyl-3-[5-(2-methyl-4-pyridyl)isoxazol-3-yl]-5-[4-(trifluoromethyl)phenyl]-6,7-dihydropyrazolo[1,5-a]pyrazin-4-one] | 114 | 40.7 | 118.52 | – | – | – | –
C[C@H]1CN(c2ccc(C(F)(F)F)c(Cl)c2)C(=O)c2c(-c3cc(-c4cncc(F)c4)on3)cnn21 [Co. No. 21, (7S)-5-[3-chloro-4-(trifluoromethyl)phenyl]-3-[5-(5-fluoro-3-pyridyl)isoxazol-3-yl]-7-methyl-6,7-dihydropyrazolo[1,5-a]pyrazin-4-one] | 103 | 6.61 | 197.03 | > 0.63 | – | – | –
C[C@H]1CN(c2ccc(C(F)(F)F)cc2)C(=O)c2c(-c3cc(-c4cccnc4N)on3)cnn21 [Co. No. 24, (7S)-3-[5-(2-amino-3-pyridyl)isoxazol-3-yl]-7-methyl-5-[4-(trifluoromethyl)phenyl]-6,7-dihydropyrazolo[1,5-a]pyrazin-4-one] | 106 | 6.03 | 189.85 | – | – | – | –
C[C@H]1CN(c2ccc(C(F)(F)F)c(Cl)c2)C(=O)c2c(-c3cc(-c4ccc(N)nc4)on3)cnn21 [Co. No. 9, (7S)-3-[5-(6-amino-3-pyridyl)isoxazol-3-yl]-5-[3-chloro-4-(trifluoromethyl)phenyl]-7-methyl-6,7-dihydropyrazolo[1,5-a]pyrazin-4-one] | 113 | 1.15 | – | – | – | – | –
Cc1cc(N2C[C@H](C)n3ncc(-c4cc(-c5cnccn5)on4)c3C2=O)ccc1C(F)(F)F [Co. No. 17, (7S)-7-methyl-5-[3-methyl-4-(trifluoromethyl)phenyl]-3-(5-pyrazin-2-ylisoxazol-3-yl)-6,7-dihydropyrazolo[1,5-a]pyrazin-4-one] | 106 | 17.4 | 181.57 | – | – | – | –
Cc1cc(N2C[C@H](C)n3ncc(-c4cc(-c5ccccn5)on4)c3C2=O)ccc1C(F)(F)F [Co. No. 14, (7S)-7-methyl-5-[3-methyl-4-(trifluoromethyl)phenyl]-3-[5-(2-pyridyl)isoxazol-3-yl]-6,7-dihydropyrazolo[1,5-a]pyrazin-4-one] | 107 | 14.8 | 155.07 | – | – | – | –
C[C@H]1CN(c2ccc(C(F)(F)F)c(Cl)c2)C(=O)c2c(-c3cc(-c4ccccn4)on3)cnn21 [Co. No. 10, (7S)-5-[3-chloro-4-(trifluoromethyl)phenyl]-7-methyl-3-[5-(2-pyridyl)isoxazol-3-yl]-6,7-dihydropyrazolo[1,5-a]pyrazin-4-one] | 106 | 4.79 | 188.25 | > 0.63 | – | – | –
C[C@H]1CN(c2ccc(C(F)(F)F)cc2)C(=O)c2c(-c3cc(-c4cncc(F)c4)on3)cnn21 [Co. No. 19, (7S)-3-[5-(5-fluoro-3-pyridyl)isoxazol-3-yl]-7-methyl-5-[4-(trifluoromethyl)phenyl]-6,7-dihydropyrazolo[1,5-a]pyrazin-4-one] | 101 | 18.6 | 176.27 | – | – | – | –
Cc1cc(N2C[C@H](C)n3ncc(-c4cc(-c5cccnc5)on4)c3C2=O)ccc1C(F)(F)F [Co. No. 15, (7S)-7-methyl-5-[3-methyl-4-(trifluoromethyl)phenyl]-3-[5-(3-pyridyl)isoxazol-3-yl]-6,7-dihydropyrazolo[1,5-a]pyrazin-4-one] | 108 | 5.5 | 120.21 | > 0.63 | – | – | –
CN1[C@@H]2C[C@@H](OC(=O)[C@H](CO)c3ccccc3)C[C@H]1[C@@H]1O[C@@H]12 [Scopolamine, scopolamine, reference compound] | – | – | – | – | 7246 | 100 | 95.8
Cc1cncc(-c2cc(-c3cnn4c3C(=O)N(c3ccc(C(F)(F)F)c(Cl)c3)C[C@@H]4C)no2)c1 [Co. No. 12, (7S)-5-[3-chloro-4-(trifluoromethyl)phenyl]-7-methyl-3-[5-(5-methyl-3-pyridyl)isoxazol-3-yl]-6,7-dihydropyrazolo[1,5-a]pyrazin-4-one] | 108 | 6.17 | 168.58 | > 0.63 | – | – | –
Cc1cncc(-c2cc(-c3cnn4c3C(=O)N(c3ccc(C(F)(F)F)c(C)c3)C[C@@H]4C)no2)c1 [Co. No. 16, (7S)-7-methyl-3-[5-(5-methyl-3-pyridyl)isoxazol-3-yl]-5-[3-methyl-4-(trifluoromethyl)phenyl]-6,7-dihydropyrazolo[1,5-a]pyrazin-4-one] | 110 | 21.4 | 172.9 | – | – | – | –
Cc1ccncc1-c1cc(-c2cnn3c2C(=O)N(c2ccc(C(F)(F)F)c(C)c2)C[C@@H]3C)no1 [Co. No. 22, (7S)-7-methyl-3-[5-(4-methyl-3-pyridyl)isoxazol-3-yl]-5-[3-methyl-4-(trifluoromethyl)phenyl]-6,7-dihydropyrazolo[1,5-a]pyrazin-4-one] | 110 | 2.09 | 171.25 | > 0.63 | – | – | –
Cc1cncc(-c2cc(-c3cnn4c3C(=O)N(c3ccc(C(F)(F)F)cc3)C[C@@H]4C)no2)c1 [Co. No. 7, (7S)-7-methyl-3-[5-(5-methyl-3-pyridyl)isoxazol-3-yl]-5-[4-(trifluoromethyl)phenyl]-6,7-dihydropyrazolo[1,5-a]pyrazin-4-one] | 106 | 27.5 | 208.95 | – | – | – | –
C[C@H]1CN(c2ccc(C(F)(F)F)cc2)C(=O)c2c(-c3cc(-c4ccccn4)on3)cnn21 [Co. No. 4, (7S)-7-methyl-3-[5-(2-pyridyl)isoxazol-3-yl]-5-[4-(trifluoromethyl)phenyl]-6,7-dihydropyrazolo[1,5-a]pyrazin-4-one] | 106 | 40.7 | 193.65 | – | – | – | –
Cc1cc(-c2cnn3c2C(=O)N(c2ccc(C(F)(F)F)cc2)C[C@@H]3C)no1 [Co. No. 1, (7S)-7-Methyl-3-(5-methylisoxazol-3-yl)-5-[4-(trifluoromethyl)phenyl]-6,7-dihydropyrazolo[1,5-a]pyrazin-4-one] | 103 | 69.2 | 165.04 | – | – | – | –
C[C@H]1CN(c2ccc(C(F)(F)F)cc2)C(=O)c2c(-c3cc(-c4ccccc4)on3)cnn21 [Co. No. 3, (7S)-7-methyl-3-(5-phenylisoxazol-3-yl)-5-[4-(trifluoromethyl)phenyl]-6,7-dihydropyrazolo[1,5-a]pyrazin-4-one] | 103 | 9.12 | 194.25 | – | – | – | –
CNc1cc(-c2cc(-c3cnn4c3C(=O)N(c3ccc(C(F)(F)F)cc3)C[C@@H]4C)no2)ccn1 [Co. No. 25, (7S)-7-methyl-3-[5-[2-(methylamino)-4-pyridyl]isoxazol-3-yl]-5-[4-(trifluoromethyl)phenyl]-6,7-dihydropyrazolo[1,5-a]pyrazin-4-one] | 110 | 25.1 | 208.39 | – | – | – | –

From patent US10017514B2, “6,7-dihydropyrazolo[1,5-α]pyrazin-4(5H)-one compounds and their use as negative allosteric modulators of mGluR2 receptors” (Janssen Pharmaceutica NV, priority 2014, dated 2018)
